Data published in US20100093642A1, “NOVEL POLYPEPTIDES” (priority 2006, published 2010).
No end group written: not given here.

Assays:
Botrytis cinerea 101 = conditions: 48 h
Method: (§1) The various derivates of P17 (brominated and non-brominated) were tested for their ability to inhibit fungal growth of the yeast strains Saccaharomyces cerevisiae sp, Candida albicans (ATCC 10231) and Rodotorula sp., and the filamentous strains Botrytis cinerea 101, Penicillium rogveforti, and Fusarium sp. All strains, except C. albicans, were a gift from Prof. A. Tronsmo (The Norwegian University of Life Sciences, Ås, Norway). The fungi were cultivated on potato dextrose agar, supplemented with 2% glucose, at room temperature. Before antifungal testing, the fungi were dissolved in potato dextrose broth (Difco) at half-strength. Cell concentration was determined and adjusted after counting in a Bürker chamber. The filamentous fungi were filtered through a piece of cotton before counting. An aliquot of 50 μl of fungal spores (final concentration 2×10^5 spores per ml) were inoculated in microtiter plates (96 wells) along with 50 μl peptide solution. Peptides, dissolved in distilled water, were tested at final concentrations (two-fold dilutions) ranging from 50 μM to 0.1 μM. Cultures were grown in the dark (without shaking) and with a moist chamber at 25° C. (37° C. for C. albicans). Growth inhibition was determined microscopically after 48 h of incubation. MIC was determined as the lowest concentration of peptide resulting in 50% inhibition of visible growth.

[1] = system: Candida albicans (ATCC 10231); conditions: ATCC 10231, 48 h
Method: as §1

Saccharomyces cerevisiae = conditions: 48 h
Method: as §1

S. aureus (ATCC 9144) = format: cell-based, Staphylococcus aureus; conditions: ATCC 9144
Method: (§2) The antibacterial activities of the different peptides were determined by continuous monitoring of bacterial growth with a Bioscreen C microbiology reader (Labsystems Oy, Helsinki, Finland). The test was performed in 100-well flat-bottomed honeycomb plates, in which 50 μl of test fractions were incubated with 50 μl of a suspension of an actively growing culture of bacteria diluted in Mueller Hinton medium to a starting concentration of 3×10^4 cells per ml. […] [NT] 13032) and S. aureus (ATCC 9144), were chosen as test bacteria. […] Polymyxin B (Sigma, St.

E. coli (ATCC 25922) = format: cell-based, Escherichia coli
Method: as §2

[2] = system: C. glutamicum (ATCC 13032); format: cell-based, Corynebacterium glutamicum
Method: as §2

Pseudomonas aeruginosa = format: cell-based
Method: as §2

[3] = system: Listonella (Vibrio) anguillarum, serotype O2 (FT 1801); format: cell-based
Method: as §2

Penicillum rogveforti = test: Antifungal MIC; format: cell-based; conditions: filamentous fungi; more than 50% inhibition of visible growth, 48 h
Method: as §1

C. glutamicum = format: cell-based, Corynebacterium glutamicum
Method: (§3) The Gram-negative bacteria Listonella (Vibrio) anguillarum, serotype O2 (FT 1801, also coded as AL 104/LFI 6004), originally isolated from Atlantic salmon by staff of the Norwegian Veterinary Institute (Oslo, Norway), Escherichia con (ATCC 25922), and the Gram-positive bacteria Staphylococcus aureus (ATCC 9144) and Corynebacterium glutamicum (ATCC 13032) were used as test organisms. All isolates were grown at room temperature in Mueller Hinton Broth (MBB; Difco Laboratories, Detroit, U.S.A).
(§4) The antibacterial activities of the obtained HPLC fractions were determined by continuous monitoring of bacterial growth with a Bioscreen C microbiology reader (Labsystems Oy, Helsinki, Finland). The test was performed in 100-well flat-bottomed honeycomb plates, in which […] of test fractions were incubated with 50 μl of a suspension of an actively growing culture of bacteria diluted to a starting concentration of 5×10^3 cells per well. The growth chamber was maintained at 20° C. during the incubation period. The absorbance was measured at 2 h intervals for 48 h by a turbidometric method with vertical light photometry and a wide band filter (420-580 nm), which is more insensitive to colour change in the sample compared to single wavelength detection. Cecropin P1(0.5 μg/ml) was used as a positive control during these experiments. Antibacterial activity was determined when the optical density (OD) of the growth control (bacteria plus water) reached an absorbance of approximately 0.3. Fractions were regarded as active when the OD was less than 50% of the growth control.
(§5) The polypeptides of the present invention were isolated and subsequently tested for activity. A serial dilution method was employed to examine the antibacterial activity of the peptides. Two Gram-negative bacteria, L. anguillarum and E. coli, and two Gram-positive bacteria, C. glutamicum and S. aureus, were chosen as test bacteria. The polypeptides of the present invention were active against both Gram-positive and Gram-negative bacteria (table 4).

[4] = system: Salmonella enterica serovar typhimurium (ATCC 14028); test: Bacterial cell viability, lux luminescence and OD600, with or without LPS; format: cell-based; conditions: co-incubation with 2.5 μM Aeromonas salmonicida LPS
Text: (§6) To evaluate the effect of antimicrobial peptides on the viability of bacteria in a fast and reliable manner we used the lux CDABE operon from Photorhabdus luminescens as a reporter system in gram negative test bacteria and the modified luxABCDE operon in S. aureus (Vesterlund et al. 2004). Bacterial bioluminescence is directly dependent on metabolic activity, since reduction equivalents are needed to drive light emission. Any form of interruption of bacterial cell integrity or metabolism will therefore be detected as a reduction in light emission.
(§7) For the assay we used S. aureus (RN4220), E. coli K-12 and Salmonella enterica serovar typhimurium (ATCC 14028) transformed with the respective lux-operon containing plasmids (Vesterlund et al. 2004).
(§8) For each experiment a fresh colony was picked from Luria-Bertani plates supplemented with 10 μg/ml of erythromycin in case of S. aureus and with 100 μg/ml of ampicillin in case of E. coli and S. enterica serovar Typhimurium. Each colony was suspended in 5 ml of Müller-Hinton medium with appropriate antibiotics. The culture was incubated over night at 37° C. in a shaking incubator. The next morning 0.5 ml of this culture was transferred to 30 ml fresh MH medium in an Erlenmeyer-flask supplemented with the respective antibiotic. The flask was incubated (200 rpm shaking; 37° C.) until an OD600 of 0.5-0.8 was reached. The culture was then diluted to an OD600 of about 0.02-0.03 before transfer to the 96 well opaque plates with optical bottom (Packard ViewPlate) used for the assay.
The synthesized peptides were dissolved in water and aliquots frozen at −18° C. until use. Twofold dilutions of test peptides (final concentrations ranging from 0.31 to 80 μM) were directly prepared in 96 well microtiter plates in a volume of 10 μl in water. 90 μl is of indicator bacteria in MH medium were added directly to the prepared and pre-warmed (30 minutes at 37° C.) plate before starting the measurement in a Victor multiplate reader (Perkin Elmer) at 37° C. Both OD600 and luminescence in counts per second (cps) were followed over 5 hours in measuring intervals of 5 minutes. The plates where shaken before each measurement (20 sec.; 5 mm orbital shaking; 10 sec waiting). The growth curves and light emission curves were drawn and evaluated to determine the MIC for each indicator strain. The MIC was defined as the concentration of test compound causing more than 50% reduction in bioluminescence (cps) or optical density (OD600) after 5 hours, compared to the growth control. Cecropin P1 was used as positive control. The results (table 14a-b) confirm the results obtained in example 2, showing a pronounced antibacterial effect of the longest peptide fragments. […] The partial peptides P17 HC (1-20), both bromated and unbromated, inhibit growth only in higher concentrations.
A second plate with an otherwise similar setup (as described for the luminescence assay in example 3) was prepared, but with addition of Aeromonas salmonicida LPS to the peptide dilutions before pre-warming. The LPS end concentration in each well was approximately 2.5 μM.

L. anguillarum = format: cell-based, Listonella (Vibrio) anguillarum
Method: as §3, §4, §5

E. coli K-12 = test: Bacterial cell viability, lux luminescence and OD600, with or without LPS; format: cell-based, Escherichia coli; conditions: co-incubation with 2.5 μM Aeromonas salmonicida LPS
Text: as §6, §7, §8
The synthesized peptides were dissolved in water and aliquots frozen at −18° C. until use. Twofold dilutions of test peptides (final concentrations ranging from 0.31 to 80 μM) were directly prepared in 96 well microtiter plates in a volume of 10 μl in water. 90 μl is of indicator bacteria in MH medium were added directly to the prepared and pre-warmed (30 minutes at 37° C.) plate before starting the measurement in a Victor multiplate reader (Perkin Elmer) at 37° C. Both OD600 and luminescence in counts per second (cps) were followed over 5 hours in measuring intervals of 5 minutes. The plates where shaken before each measurement (20 sec.; 5 mm orbital shaking; 10 sec waiting). The growth curves and light emission curves were drawn and evaluated to determine the MIC for each indicator strain. The MIC was defined as the concentration of test compound causing more than 50% reduction in bioluminescence (cps) or optical density (OD600) after 5 hours, compared to the growth control. Cecropin P1 was used as positive control. […]
A second plate with an otherwise similar setup (as described for the luminescence assay in example 3) was prepared, but with addition of Aeromonas salmonicida LPS to the peptide dilutions before pre-warming. […]

E. coli = format: cell-based, Escherichia coli
Method: as §3, §4, §5

S. aureus = format: cell-based, Staphylococcus aureus
Method: as §3, §4, §5

Row | Sequence | Minimal inhibitory concentration (MIC), Botrytis cinerea (Botrytis cinerea 101) | Minimal inhibitory concentration (MIC), Candida albicans [1] | Minimal inhibitory concentration (MIC), Saccharomyces cerevisiae (Saccharomyces cerevisiae) | Minimal inhibitory concentration, S. aureus (S. aureus (ATCC 9144)) | Minimal inhibitory concentration, E. coli (E. coli (ATCC 25922)) | Minimal inhibitory concentration, C. glutamicum [2] | Minimal inhibitory concentration, P. aeruginosa (Pseudomonas aeruginosa) | Minimal inhibitory concentration, L. anguillarum [3] | Minimal inhibitory concentration (MIC), Penicillum rogveforti (Penicillum rogveforti) | Minimal inhibitory concentration (MIC), C. glutamicum (C. glutamicum) | MIC, more than 50% reduction in optical density, S. enterica, P + LPS ([4]; OD600, 5 hours) | MIC, more than 50% reduction in luminescence, S. enterica, P + LPS ([4]; luminescence (cps), 5 hours) | Minimal inhibitory concentration (MIC), L. anguillarum (L. anguillarum) | MIC, more than 50% reduction in optical density, E. coli, P + LPS (E. coli K-12; OD600, 5 hours) | MIC, more than 50% reduction in luminescence, E. coli, P + LPS (E. coli K-12; luminescence (cps), 5 hours) | Minimal inhibitory concentration (MIC), E. coli (E. coli) | Minimal inhibitory concentration (MIC), S. aureus (S. aureus)
1 | DLRGACAAAHAL [P17 LC] | >100 µM | >100 µM | >100 µM | >100 µM | >100 µM | >100 µM | >100 µM | >100 µM | >100 µM |  |  |  |  |  |  |  | 
2 | SWLSKTAKKLENSAKKRISEGIAIAIQGGPR [Cecropin P1, reference compound] |  |  |  |  |  |  |  |  |  | 1.6 µM | 10 µM | 10 µM | 1.2 µM | 20 µM | 20 µM | 1.2 µM | 12.5 µM
